Like-named read-outs stand apart in the source and are kept apart here.
Tests used:
[1] = system: human FADD-deficient Jurkat T cells; assay: Cellular necrosis inhibition, FADD-deficient Jurkat T cells challenged with TNF-alpha (CellTiter-Glo viability); conditions: 30 hours, ATP-based cell viability
Description: FADD−/− Jurkat cells (Juo P, et al. Cell Growth Differ. 1999, 10(12):797-804) were seeded at the density of 5*10^5 cells/mL into 96 well white plates (Costar) at 100 μL/well. […] Cells were treated in duplicate with various concentrations of test compounds in the presence or absence of 10 ng/ml human TNF-alpha. (Cell Sciences).
After 30 hours, viability of the cells was determined using luminescent ATP-based cell viability assay (CellTiter-Glo, Promega). Percentage of protection by the compound was calculated as a ratio of the cps (counts per second) value in the well treated with the test compound and TNF-alpha. to the cps value in the well treated with the compound alone. Assays were repeated twice, and the average EC50 value over both assays was calculated.
Exemplary compounds of structure (II) were screened for anti-necrotic activity according to the general procedures of Example 7.

[2] = biological target: GST-human RIP1 kinase domain (amino acids 1-327) (Homo sapiens (Human), UniProt Q13546); assay: RIP1 kinase ADP-Glo assay
GST-human RIP1 kinase domain (amino acids 1-327), sequence (Q13546 1-327): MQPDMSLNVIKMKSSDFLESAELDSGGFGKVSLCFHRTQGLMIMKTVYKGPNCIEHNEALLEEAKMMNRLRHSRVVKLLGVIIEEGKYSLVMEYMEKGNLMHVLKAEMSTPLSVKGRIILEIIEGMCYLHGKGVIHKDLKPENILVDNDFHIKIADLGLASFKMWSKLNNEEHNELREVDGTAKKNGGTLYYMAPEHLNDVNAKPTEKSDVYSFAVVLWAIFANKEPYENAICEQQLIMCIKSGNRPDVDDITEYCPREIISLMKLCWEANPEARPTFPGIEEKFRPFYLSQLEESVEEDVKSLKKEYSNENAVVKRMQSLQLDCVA
Description: RIP1 kinase assays were performed using ADP-Glo assay (Promega) according to manufacturer's protocol. […] Reactions were performed for 4 hr at room temperature and stopped by incubation with ADP-Glo reagent for 40 min at room temperature. Luminescent signal was developed by incubation with Kinase Detection reagent for 30 min at room temperature. Signal was determined using Victor3V platereader (Perkin Elmer). Non-linear regression to calculate EC50 values was performed using GraphPad Prism software package.

[3] = 10 ng/ml human TNF-alpha plus Smac mimetic (10 nM SM-164), read-out: EC50 (nM) TNFα + Smac
[4] = 10 ng/ml human TNF-alpha, read-out: EC50 (nM) TNFα

| Structure (SMILES) | EC50 [1, 3] | EC50 [1, 4] | EC50 [2] |
| --- | --- | --- | --- |
| O=C1NC(Cc2c[nH]c3c(Cl)cccc23)C(=O)N1Cc1ccc(F)c(F)c1 (centres unmarked) [II-3, 5-((7-chloro-1H-indol-3-yl)methyl)-3-(3,4-difluorobenzyl)imidazolidine-2,4-dione] | 426 nM | 89 nM | < 100 nM |
| CN1C(=O)N[C@H](Cc2c[nH]c3c(Cl)c(Cl)ccc23)C1=O [B, reference compound] |  | > 100000 nM |  |
| CN1C(=O)N[C@H](Cc2c[nH]c3c(Cl)ccc(F)c23)C1=O [Compound E, reference compound] | 8330 nM | 2330 nM |  |
| O=C1NC(Cc2c[nH]c3ccccc23)C(=O)N1Cc1ccc(Cl)cc1 (centres unmarked) [Compound C1, reference compound] |  | 343 nM |  |
| O=C1NC(Cc2c[nH]c3c(Cl)cccc23)C(=O)N1Cc1ccccc1F (centres unmarked) [II-1, 5-((7-chloro-1H-indol-3-yl)methyl)-3-(2-fluorobenzyl)imidazolidine-2,4-dione] | 11000 nM | 159 nM |  |
| CN1C(=O)N[C@H](Cc2c[nH]c3c(Cl)c(F)ccc23)C1=O [Compound (Ia), (R)-5-((7-chloro-6-fluoro-1H-indol-3-yl)methyl)-3-methylimidazolidine-2,4-dione] | 86.6 nM |  | 93.7 nM |
| O=C1NC(Cc2c[nH]c3c(Cl)c(F)ccc23)C(=O)N1Cc1ccccc1F (centres unmarked) [II-5, 5-((7-chloro-6-fluoro-1H-indol-3-yl)methyl)-3-(2-fluorobenzyl)imidazolidine-2,4-dione] | 892 nM | 235 nM |  |
| O=C1NC(Cc2c[nH]c3c(Cl)cccc23)C(=O)N1Cc1cccc(F)c1 (centres unmarked) [II-2, 5-((7-chloro-1H-indol-3-yl)methyl)-3-(3-fluorobenzyl)imidazolidine-2,4-dione] | 895 nM | 41 nM | < 100 nM |
| O=C1NC(Cc2c[nH]c3c(Cl)c(F)ccc23)C(=O)N1Cc1cccc(F)c1F (centres unmarked) [II-6, 5-((7-chloro-6-fluoro-1H-indol-3-yl)methyl)-3-(2,3-difluorobenzyl)imidazolidine-2,4-dione] | 822 nM | 50 nM |  |
| O=C1NC(Cc2c[nH]c3c(Cl)c(F)ccc23)C(=O)N1Cc1ccc(F)c(F)c1 (centres unmarked) [II-7, 5-((7-chloro-6-fluoro-1H-indol-3-yl)methyl)-3-(3,4-difluorobenzyl)imidazolidine-2,4-dione] | 722 nM | 121 nM |  |
| CN1C(=O)N[C@H](Cc2c[nH]c3c(Cl)cccc23)C1=O [Compound A, reference compound] | 324 nM | 90.5 nM |  |
| CN1C(=O)N[C@H](Cc2c[nH]c3c(Cl)cc(F)cc23)C1=O [Compound F, reference compound] | > 100000 nM | 10500 nM |  |
| O=C1NC(Cc2c[nH]c3c(Cl)cccc23)C(=O)N1Cc1ccc(F)cc1 (centres unmarked) [II-4, 5-((7-chloro-1H-indol-3-yl)methyl)-3-(4-fluorobenzyl)imidazolidine-2,4-dione] | 867 nM | 220 nM |  |
